Here are results for five compounds from paper PMC3478562 (Biochemical pharmacology, 2011).

Experiment [1] relates to Proteus mirabilis 1360. Put plainly: Antimicrobial activity spectrum MIC. Type of experiment: cell-based.
The test system of experiment [2] is Escherichia coli 120 (acrAB efflux pump deletion). The experiment is described as follows: microbe, parasite or virus in culture. The class given is cell-based.
Experiment [3] deals with Streptococcus pyogenes 712. The experiment is described as follows: Antimicrobial activity spectrum MIC. Type of experiment: cell-based.
The subject of experiment [4] is Streptococcus pneumoniae 1195. The experiment is described as follows: Antimicrobial activity spectrum MIC. The class given is cell-based.
The test system of experiment [5] is Enterococcus faecium 800. The experiment is described as follows: Antimicrobial activity spectrum MIC. Type of experiment: cell-based.
The test system of experiment [6] is Klebsiella pneumoniae 1339. Put plainly: Antimicrobial activity spectrum MIC. Type of experiment: cell-based.
In experiment [7] the test system is Escherichia coli 102. Put plainly: Antimicrobial activity spectrum MIC. Type of experiment: cell-based.
For experiment [8], the system named is Enterococcus faecalis 101. The experiment is described as follows: Antimicrobial activity spectrum MIC. Type of experiment: cell-based.
Experiment [9] deals with Pseudomonas aeruginosa 1380. Put plainly: Antimicrobial activity spectrum MIC. Type of experiment: cell-based.
The subject of experiment [10] is Staphylococcus epidermidis 831. The experiment is described as follows: Antimicrobial activity spectrum MIC. The class given is cell-based.
The subject of experiment [11] is Candida albicans 2000. The experiment is described as follows: Antimicrobial activity spectrum MIC. The class given is cell-based.
For experiment [12], the system named is Aspergillus niger 624. Put plainly: Antimicrobial activity spectrum MIC. Type of experiment: cell-based.
In experiment [13] the test system is Staphylococcus aureus HFH-30522. The experiment is described as follows: S. aureus MIC, broth microdilution. Particulars: HFH30522. In general terms: In broth dilution the organism is exposed to a series of concentrations in liquid medium.
Experiment [14] deals with Staphylococcus aureus 328. Put plainly: S. aureus MIC, broth microdilution.
Experiment [15] has as its system Staphylococcus aureus PCI 124. The experiment is described as follows: S. aureus MIC, broth microdilution. Particulars: PCI124.
The test system of experiment [16] is S. aureus N315-alr (Alr overexpressing). Put plainly: MIC in wild type and Alr overexpressing strains. Particulars: Staphylococcus aureus.
Experiment [17] deals with T1, Alr (Staphylococcus aureus, UniProt Q6GF03). The experiment is described as follows: Inhibitor reversibility: IC50 after pre-incubation with the enzyme. Type of experiment: biochemical. To be noted: pre-incubation 30 minutes vs 6 hours (16 hours).
T1 sequence (Q6GF03 whole entry): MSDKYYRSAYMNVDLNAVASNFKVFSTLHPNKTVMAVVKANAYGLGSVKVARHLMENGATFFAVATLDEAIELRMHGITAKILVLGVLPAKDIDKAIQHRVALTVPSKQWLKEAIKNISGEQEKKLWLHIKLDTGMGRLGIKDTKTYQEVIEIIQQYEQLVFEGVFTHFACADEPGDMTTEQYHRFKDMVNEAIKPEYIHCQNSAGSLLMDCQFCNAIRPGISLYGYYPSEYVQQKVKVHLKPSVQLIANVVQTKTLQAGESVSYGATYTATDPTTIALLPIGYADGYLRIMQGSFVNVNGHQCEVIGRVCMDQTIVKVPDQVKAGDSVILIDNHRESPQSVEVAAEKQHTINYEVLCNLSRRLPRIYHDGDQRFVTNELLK
Experiment [18] has as its system Staphylococcus aureus PCI 1158. Put plainly: S. aureus MIC, broth microdilution. To be noted: PCI1158.
Experiment [19] concerns S. aureus N315. The experiment is described as follows: MIC in wild type and Alr overexpressing strains. To be noted: Staphylococcus aureus.
Experiment [20] deals with Staphylococcus aureus HFH-30364. The experiment is described as follows: S. aureus MIC, broth microdilution. Particulars: HFH30364.
The test system of experiment [21] is Staphylococcus aureus FDA 209. Put plainly: S. aureus MIC, broth microdilution. Particulars: FDA209.
Experiment [22] has as its target T1, Alr. The experiment is described as follows: Inhibitor reversibility: pre-incubation and dialysis. To be noted: pre-incubated 30 minutes, dialyzed for 16 hours. The class given is biochemical.
In experiment [23] the test system is S. aureus USA300-alr (Alr overexpressing). The experiment is described as follows: MIC in wild type and Alr overexpressing strains. Particulars: Staphylococcus aureus.
In experiment [24] the test system is S. aureus USA 300. Put plainly: MIC in wild type and Alr overexpressing strains. Particulars: Staphylococcus aureus, USA300.
The test system of experiment [25] is Staphylococcus aureus HFH-29568. The experiment is described as follows: S. aureus MIC, broth microdilution. To be noted: HFH29568.
Experiment [26] concerns Staphylococcus aureus HFH-30032. The experiment is described as follows: S. aureus MIC, broth microdilution. Particulars: HFH30032.

Molecules are shown by their SMILES. In brackets after ≈: the same amount, converted by molar mass.

Turning to `C[C@@H]1[C@H](O)[C@@H](C)/C=C/C=C/C=C/C=C/C=C/C=C/C=C/[C@H](O[C@@H]2O[C@H](C)[C@@H](O)[C@H](N)[C@@H]2O)C[C@@H]2O[C@](O)(C[C@@H](O)C[C@@H](O)[C@H](O)CC[C@@H](O)C[C@@H](O)CC(=O)O[C@H]1C)C[C@H](O)[C@H]2C(=O)O` [AMPB, Amphotericin B], the MIC in experiment [1], in [2], in [3], in experiment [4], in experiment [5] and in [6] was over 64 µg/mL each time. The MIC in [7], in experiment [8], in experiment [9] and in [10] was over 64 µg/mL each time.
Consider `O=C(O)c1cn(C2CC2)c2cc(N3CCNCC3)c(F)cc2c1=O` [Cipro, Ciprofloxacin], for which the MIC is 0.5 µg/mL (≈ 1.51 µM) in experiment [4]; over 16 µg/mL in experiment [5]; over 64 µg/mL in [11]; over 64 µg/mL in experiment [12]; over 16 µg/mL in experiment [10].
On to `N[C@@H]1CON=C1O` [DCS, D-cycloserine], for which the MIC in [13] is 12.5 µg/mL (≈ 122 µM); in [14], 12.5 µg/mL (≈ 122 µM); in experiment [15], 12.5 µg/mL (≈ 122 µM); in experiment [16], 25 µg/mL (≈ 245 µM); in [18], 12.5 µg/mL (≈ 122 µM); in experiment [19], 25 µg/mL (≈ 245 µM). Further, the MIC in experiment [20] was 12.5 µg/mL (≈ 122 µM); in [21], 12.5 µg/mL (≈ 122 µM); in [23] it was 25 µg/mL (≈ 245 µM); in [24], 25 µg/mL (≈ 245 µM); in experiment [25] it was 12.5 µg/mL (≈ 122 µM); in experiment [26], 12.5 µg/mL (≈ 122 µM). Besides, the “change of IC50 values with longer pre-incubation time” value in experiment [17] is reported as “a significant reduction in the IC50 values occurs with longer pre-incubation time”. Also, the “recovery of Alr activity after dialysis” value in [22] is “no increase in activity”.
As for `CC(=O)OC[C@H](N)C(=O)O` [O-acetyl-L- serine, O-acetyl-L-serine], the “change of IC50 values with longer pre-incubation time” value in experiment [17] was “no significant reduction in IC50 values”.
On to `CCC(=O)[O-].[Na+]` [sodium propionate], for which, in experiment [22], the “recovery of Alr activity after dialysis” value was “recovery of Alr activity”.
